Results from PubChem BioAssay (NCI).
Values joined by “and” are separate entries in the source; they are usually repeats but may differ in a detail not shown here. Identical values can stand only once.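 Tested at 5 concentrations; 48 h exposure; 96-well plates; endpoints linearly interpolated, else capped at highest concentration. GI50 is the concentration that inhibits growth by half. TGI denotes the concentration required for complete inhibition of growth.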

Experiments:
Assay in all cases: DTP human tumour cell line panel, 48 h
[1] = test system: EKVX NSCLC
[2] = test system: HCT-15 colon
[3] = test system: HL-60(TB) leukemia
[4] = test system: HT29 colon
[5] = test system: NCI-H226 lung
[6] = test system: PC-3 prostate
[7] = test system: SK-OV-3 ovarian
[8] = test system: T-47D breast
[9] = test system: UACC-62 melanoma
[10] = test system: UO-31 renal

| Structure (SMILES) | TGI [1] [µM] | TGI [2] [µM] | TGI [3] [µM] | TGI [4] [µM] | TGI [5] [µM] | TGI [6] [µM] | TGI [7] [µM] | TGI [8] [µM] | TGI [9] [µM] | TGI [10] [µM] | GI50 [10] |
| --- | --- | --- | --- | --- | --- | --- | --- | --- | --- | --- | --- |
| CC(=O)OCC(=O)O[C@@H]1[C@H]2[C@@H](OC(=O)c3ccccc3)[C@@H](C)C[C@]2(O)[C@H](OC(C)=O)[C@@]2(C)C[C@]1(OC(C)=O)C[C@H]1C(=O)C(C)(C)[C@@H](OC(C)=O)[C@@H]12 | > 25 | > 25 | > 25 | > 25 | > 25 | > 25 | > 25 | > 25 | > 25 | > 6.83 | – |
| N#C/C(=C\c1cccc(Br)c1)c1nc2ccccc2c(=O)[nH]1 | > 100 | > 100 | > 100 | > 100 | > 100 | > 100 | > 100 | > 100 | > 100 | > 100 | – |
| CCOc1ccc(NCC2CC/C(=C\C=C\c3ccccc3)C2=O)cc1 (stereo unspecified) | > 86.2 | 18.9 | 47.8 | 30.3 | > 100 | 49.8 | > 100 | 45.3 | 54.2 | 66.2 | – |
| COc1ccc(C2Oc3c(OC)cc(CCCO)cc3C2CO)cc1OC (stereo unspecified) | > 100 | > 100 | > 100 | > 100 | > 100 | > 100 | > 100 | > 100 | > 100 | > 100 | 38.9 µM and > 100 µM |
| NCCN(CCN(C(=O)Nc1ccccc1)c1ccccc1)C(=O)Nc1ccccc1 | 67.3 | 76.4 | 74.8 | > 100 | 98.6 | 90.3 | 44.9 | 90.8 | 35.3 | 39.3 | – |
| CNC(=S)NNc1ncnc2c1c(-c1ccc(Cl)cc1)cn2-c1ccc(C)cc1 | 28.8 | 21 | > 100 | 29.8 | 57.5 | 17.9 | 28.9 | 24.1 | 40.7 | 23.4 | – |
| O=C1CC(c2ccccc2Cl)C2(C(=O)NC(=O)NC2=O)C(c2ccccc2Cl)C1 (stereo unspecified) | > 100 | > 100 | > 100 | > 100 | > 100 | > 100 | > 100 | 78.2 | > 100 | > 100 | – |
| CC1(C)OC[C@@H](C[C@H](O)COCc2ccccc2)O1 | > 100 | > 100 | > 100 | > 100 | > 100 | > 100 | > 100 | > 100 | > 100 | > 100 | – |
| CCCCCCc1cc2cc(-c3csc(-c4ccc(OC)cc4)n3)c(=O)oc2cc1O | 45.1 | 46.8 | > 100 | > 100 | 30.6 | 41.5 | 33.1 | 24.1 | 24.6 | 19.8 | – |
| O=C1CS/C(=N/N=C/c2cn(Cc3ccc(Cl)cc3Cl)c3ccccc23)N1 | 48.5 | > 100 | > 100 | > 100 | > 100 | 76.8 | > 100 | > 100 | > 100 | > 100 | – |
| Clc1cc(C(c2cc(Cl)sc2Cl)c2cc(Cl)sc2Cl)c(Cl)s1 | > 100 | > 100 | > 100 | > 100 | > 100 | > 100 | > 100 | > 100 | > 100 | > 100 | – |
